The record followed here is patent US7759331B2, “Pyridine-containing macroheterococylic compounds as kinase inhibitors” (Janssen Pharmaceutica NV, priority 2006, dated 2010).

Where “and” joins values, the source holds several entries; their conditions need not be identical. Identical values can stand only once.

Chain of GSK3β(h) (P49841 whole entry): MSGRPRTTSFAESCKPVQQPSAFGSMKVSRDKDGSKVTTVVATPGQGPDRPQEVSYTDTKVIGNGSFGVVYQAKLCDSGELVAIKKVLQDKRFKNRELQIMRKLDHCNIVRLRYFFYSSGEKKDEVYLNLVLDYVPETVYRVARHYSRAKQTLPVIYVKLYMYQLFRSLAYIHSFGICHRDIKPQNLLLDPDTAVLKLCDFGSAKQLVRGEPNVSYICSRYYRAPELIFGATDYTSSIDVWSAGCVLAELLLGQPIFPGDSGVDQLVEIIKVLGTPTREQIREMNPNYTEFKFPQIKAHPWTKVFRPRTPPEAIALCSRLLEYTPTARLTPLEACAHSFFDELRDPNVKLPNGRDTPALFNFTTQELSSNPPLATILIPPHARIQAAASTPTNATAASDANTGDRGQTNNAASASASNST

This assay concerns the target GSK3β(h) (Homo sapiens, UniProt P49841). The experiment in a line: Glycogen Synthase Kinase-3 Assay. The following applies: assay run three times for each compound; each run's value listed. Format: biochemical. Here is the method:
Compounds were tested for the ability to inhibit GSK-3β protein. Briefly, in a final reaction volume of 25 μL, GSK-3β (h) (5-10 mU) was incubated with 8 mM MOPS pH 7.0, 0.2 mM EDTA, 20 μM […](p)EDEEE (phospho GS2 peptide), 10 mM Mg Acetate and [γ-^33P-ATP] (specific activity approx. 500 cpm/pmol, concentration as required). The reaction was initiated by the addition of the MgATP mix. After incubation for 40 minutes at room temperature, the reaction was stopped by the addition of 5 μL of a 3% phosphoric acid solution. 10 μL of the reaction was then spotted onto a P30 filtermat and washed three times for 5 minutes in 50 mM phosphoric acid and once in methanol prior to drying and scintillation counting.
The GSK-3β assay was run three times for each compound.
As for `CN(C)c1nc2ccc1CCCn1cc(c3ccccc31)C1=C(C(=O)NC1=O)c1cn(c3ccccc13)CCC2` [Cpd 3, 31-(dimethylamino)-5,15,25,30-tetraazaheptacyclo[27.2.2.1^5,12.1^18,25.0^6,11.0^13,17.0^19,24]pentatriaconta-1(31),6,8,10,12(35),13(17),18(34),19,21,23,29,32-dodecaene-14,16-dione], the IC50 was 0.0055 µM and 0.0529 µM and 0.0521 µM.
For `O=C1NC(=O)C2=C1c1cn(c3ccccc13)CCCCc1ccc(c(N3CCCC3)n1)CCCCn1cc2c2ccccc21` [Cpd 5, 33-pyrrolidin-1-yl-6,16,26,32-tetraazaheptacyclo[29.2.2.1^6,13.1^19,26.0^7,12.0^14,18.0^20,25]heptatriaconta-1(33),7,9,11,13(37),14(18),19(36),20,22,24,31,34-dodecaene-15,17-dione], the IC50 is 0.024 µM and 0.0193 µM and 0.0298 µM.
The figure for `Cc1ccc(-c2cc3cc(n2)CCCn2cc(c4ccccc42)C2=C(C(=O)NC2=O)c2cn(c4ccccc24)CCC3)cc1` [Cpd 4, 20-(4-methylphenyl)-4,14,19,26-tetraazaheptacyclo[24.6.1.1^7,14.1^18,22.0^2,6.0^8,13.0^27,32]pentatriaconta-1(33),2(6),7(35),8,10,12,18(34),19,21,27,29,31-dodecaene-3,5-dione] is 0.01 µM and 0.021 µM and 0.0535 µM.

The IC50 is the concentration at which inhibition is half-maximal.
